This data set can be described thus: Pharmacokinetic study in vivo. Also on record: species or system BALB/c mice. As to conditions: mice; for MRT inf: read-out: MRT0-inf. As to the method: BALB/c mice weighing 19–21 g were procured from Beijing Vital River Laboratory Animal Technology Co., Ltd. (Beijing, China). The animals were housed under conditions of constant temperature and humidity, with a 12-h light-dark cycle for lighting. The mice had free access to water and food but were fasted for 12 h before intragastric administration. This study has been approved by the Animal Care and Use Committee Ethics Committee of the National Beijing Center for Drug Safety Evaluation and Research; the approval number is IACUC-DWZX-2024-P557.
Six male BALB/c mice were randomly assigned to two groups, with three mice in each group. MGD-C9 was administered via intravenous (i.v., 2 mg/kg in a solution of 10% DMSO, 2% Tween 80% and 88% H2O) and oral (p.o., 50 mg/kg in the same vehicle) routes to assess its pharmacokinetic (PK) characteristics. Blood samples (0.05 mL) were collected into heparinized tubes at pre-dose and at 0, 0.0833-, 0.25-, 0.5-, 1-, 2-, 4-, 6-, 8-, and 24 h post-administration. Plasma samples were obtained by centrifuging the blood for 10 min.
The plasma supernatant was then stored at −80°C and thawed at room temperature for subsequent analysis. For preparation, 10 μL of plasma was mixed with 10 μL working solution, followed by protein precipitation with 50 μL acetonitrile containing propranolol hydrochloride internal standard (50 ng/mL). After vortexing (1 min) and centrifugation (18,800× g, 10 min, 4°C), the supernatant was collected, diluted two-fold with 50% acetonitrile/water (v/v), and mixed. MGD-C9 plasma concentrations were quantified by LC-MS/MS using Analyst 1.5.1 (Applied Biosystem, Shanghai, China).
Automated peak integration was performed for atlas samples. The peak area ratio (sample/internal standard) was used for concentration regression analysis, applying linear regression with 1/X^2 weighting. Pharmacokinetic parameters (AUC, t1/2, MRT) across administration routes, and Cmax/Tmax after oral dosing, were calculated via non-compartmental analysis using WinNonlin v6.3 (Pharsight, Lawrenceville, GA, USA).
Experimental data were presented as “Mean ± SD” (n = 3).

Where [1] appears, read: male, BALB/c, mouse, plasma, iv, 2 mg/kg.
Where [2] appears, read: male, BALB/c, mouse, plasma, po, 50 mg/kg.

Read-outs that look alike come from different tables or passages of the source.

On to `CN1CCN(Cc2cccc(C(=O)NC3CCC(=O)NC3=O)c2F)C(=O)C1` (stereo not drawn) [MGD-C9, N-(2,6-dioxopiperidin-3-yl)-2-fluoro-3-((4-methyl-2-oxopiperazin-1-yl)methyl)benzamide], for which, under setting [1], the AUC(0-inf) was 1360 ± 190 ng·h/mL, the Cmax was 3690 ± 713 ng/mL and the half-life is 12 ± 4.2 min. In addition, the MRT inf (male, BALB/c, mouse, plasma, iv, i.v., 2 mg/kg) was 15.6 ± 7.2 min. The Vd (male, BALB/c, mouse, plasma, iv, i.v., 2 mg/kg, read-out: Vz) came out at 0.42 ± 0.14 L/kg. The bioavailability (male, BALB/c, mouse, plasma, oral, p.o. 50 mg/kg vs i.v. 2 mg/kg, read-out: F (oral bioavailability)) was 33.5%. Further, under setting [2], the Tmax is around 30 min, the AUC(0-inf) was found to be 11400 ± 553 ng·h/mL, the Cmax was 5590 ± 222 ng/mL and the half-life is 53.4 ± 13.8 min. For the setting “male, BALB/c, mouse, plasma, po, p.o., 50 mg/kg”, the MRT inf came to 90.6 ± 10.2 min. Further, the “Vz” value (p.o., 50 mg/kg) was 5.62 ± 1.23 L/kg.

The AUC(0-inf) is the area under the concentration-time curve extrapolated to infinity. A higher AUC(0-inf) goes with more exposure. Broadly, the Cmax is the maximum level reached in the sampled fluid or tissue. What is called half-life is the time needed for the level to fall by half in the phase considered. A word on the bioavailability: it is dose-corrected exposure relative to a reference, in per cent. Usually Tmax stands for the time at which the peak concentration occurs.

(Values after PMC12494099, “Discovery and Characterization of Novel IKZF1/3 Glue Degraders against Multiple Hematological Cancer Cell Lines” (Oncology Research, 2025).)
